Reference: PubChem BioAssay AID330 (DTP/NCI, 2004)
Several values for one entry are separate records, joined by “and”; a condition that tells them apart may be missing. Equal values may be shown once. Inconclusive results and toxic doses are left out. The calls were made as follows: active = survival T/C of 150% or more; inactive = T/C below 125% in these data.

System: P388 leukemia ip, CD2F1 mice, survival T/C
Test: NCI In Vivo Anticancer Drug Screen. Data for tumor model P388 Leukemia (intraperitoneal) in CD2F1 (CDF1) mice
Conditions: endpoint: median survival time, higher = longer survival
How it was run: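 Mice carrying the transplanted tumor received test compound or vehicle. Survival was recorded in each group, and the value is the treated-group measurement divided by that of the vehicle-treated control group.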

[1] = dose: 100.0 mg/kg/injection, schedule: Q04DX002 (ip), vehicle: saline with Tween-80
[2] = dose: 200.0 mg/kg/injection, schedule: Q04DX002 (ip), vehicle: saline with Tween-80
[3] = dose: 400.0 mg/kg/injection, schedule: Q04DX002 (ip), vehicle: saline with Tween-80
[4] = dose: 50.0 mg/kg/injection, schedule: Q01DX005 (ip), vehicle: Klucel (hydroxypropylcellulose) (HPC)
[5] = dose: 100.0 mg/kg/injection, schedule: Q01DX005 (ip), vehicle: Klucel (hydroxypropylcellulose) (HPC)
[6] = dose: 50.0 mg/kg/injection, schedule: Q01DX005 (ip), vehicle: saline with Tween-80
[7] = dose: 100.0 mg/kg/injection, schedule: Q01DX005 (ip), vehicle: saline with Tween-80
[8] = dose: 200.0 mg/kg/injection, schedule: Q01DX005 (ip), vehicle: saline with Tween-80
[9] = dose: 50.0 mg/kg/injection, schedule: Q04DX003 (ip), vehicle: saline with Tween-80
[10] = dose: 100.0 mg/kg/injection, schedule: Q04DX003 (ip), vehicle: saline with Tween-80
[11] = dose: 60.0 mg/kg/injection, schedule: Q01DX005 (ip), vehicle: saline with Tween-80
[12] = dose: 120.0 mg/kg/injection, schedule: Q01DX005 (ip), vehicle: saline with Tween-80
[13] = dose: 240.0 mg/kg/injection, schedule: Q01DX005 (ip), vehicle: saline with Tween-80
[14] = dose: 100.0 mg/kg/injection, schedule: Q01DX009 (ip), vehicle: Klucel (hydroxypropylcellulose) (HPC)
[15] = dose: 200.0 mg/kg/injection, schedule: Q01DX009 (ip), vehicle: Klucel (hydroxypropylcellulose) (HPC)
[16] = dose: 3.13 mg/kg/injection, schedule: Q01DX009 (ip), vehicle: saline with Tween-80
[17] = dose: 6.25 mg/kg/injection, schedule: Q01DX009 (ip), vehicle: saline with Tween-80
[18] = dose: 12.5 mg/kg/injection, schedule: Q01DX009 (ip), vehicle: saline with Tween-80

Measured: T/C

CN(C)c1nc(O)c(N=O)c(=O)[nH]1
inactive: dose: 50.0 mg/kg/injection, schedule: Q04DX002 (ip), vehicle: suspension in saline 100 % of control | dose: 100.0 mg/kg/injection, schedule: Q04DX002 (ip), vehicle: suspension in saline 107 % of control | dose: 200.0 mg/kg/injection, schedule: Q04DX002 (ip), vehicle: suspension in saline 108 % of control

CC1(C)CC(NC(=O)c2cc([N+](=O)[O-])c(S(=O)(=O)O)c([N+](=O)[O-])c2)CC(C)(C)N1O
inactive: [1] 110 % of control | [2] 100 % of control | [3] 107 % of control

Cc1cc(NCCCCCCNc2cc(C)nc3cc(N)ccc23)c2ccc(N)cc2n1
active: dose: 25.0 mg/kg/injection, schedule: Q01DX009 (ip), vehicle: other 150 % of control and 158 % of control

COC(=O)C1=C(O)C(C(=O)OC)C2C(C(=O)OC)=C(O)C(C(=O)OC)C12 (configuration not stated)
inactive: [4] 97 % of control | [5] 103 % of control | dose: 200.0 mg/kg/injection, schedule: Q01DX005 (ip), vehicle: Klucel (hydroxypropylcellulose) (HPC) 92 % of control

COC(=O)N/N=C(/CC1(O)C(=O)Nc2ccccc21)c1ccc(Cl)cc1Cl (configuration not stated)
inactive: [6] 99 % of control | [7] 93 % of control | [8] 92 % of control

COc1c(Br)cc(/C=C(/C)[N+](=O)[O-])cc1Br
inactive: dose: 25.0 mg/kg/injection, schedule: Q04DX003 (ip), vehicle: saline with Tween-80 112 % of control | [9] 106 % of control | [10] 122 % of control

COC(=O)c1nc2[nH]n(-c3ccccc3)c(=O)c2c(C(=O)OC)c1C(C)C(=O)c1ccc(Cl)cc1 (configuration not stated)
inactive: [11] 96 % of control | [12] 103 % of control | [13] 98 % of control

O=S(=O)(Nc1ccc2ccc3cccc4ccc1c2c34)c1ccccc1
inactive: dose: 50.0 mg/kg/injection, schedule: Q01DX009 (ip), vehicle: Klucel (hydroxypropylcellulose) (HPC) 98 % of control | [14] 100 % of control | [15] 100 % of control

ClCCN(Cc1ccccc1)Cc1ccccc1
inactive: [16] 104 % of control | [17] 119 % of control | [18] 123 % of control

COc1ccc2nc(Cl)c(CBr)c(CBr)c2c1
inactive: dose: 12.5 mg/kg/injection, schedule: Q01DX005 (ip), vehicle: Klucel (hydroxypropylcellulose) (HPC) 98 % of control | [4] 117 % of control

C=CC1OCCCO1
inactive: dose: 60.0 mg/kg/injection, schedule: Q01DX005 (ip), vehicle: saline 100 % of control | dose: 120.0 mg/kg/injection, schedule: Q01DX005 (ip), vehicle: saline 100 % of control

CN(C)C(=S)Oc1cc(-c2c(OC(=S)N(C)C)ccc3ccccc23)c2ccccc2c1
inactive: [1] 105 % of control | [2] 102 % of control | [3] 96 % of control

Nc1cc(C(F)(F)F)cc(N)c1N
inactive: [6] 104 % of control | [7] 94 % of control | [8] 99 % of control

COc1cc2c(cc1OC)C(Cc1cccs1)=NCC2
inactive: [4] 100 % of control | [5] 94 % of control

C1=NOC2c3ccc4ccccc4c3CCC12 (configuration not stated)
inactive: [14] 100 % of control | [15] 95 % of control | dose: 400.0 mg/kg/injection, schedule: Q01DX009 (ip), vehicle: Klucel (hydroxypropylcellulose) (HPC) 100 % of control

O=[N+]([O-])c1cccc(N=Cc2ccc(N(CCCl)CCCl)cc2)c1
inactive: dose: 50.0 mg/kg/injection, schedule: Q04DX003 (ip), vehicle: Klucel (hydroxypropylcellulose) (HPC) 106 % of control | dose: 100.0 mg/kg/injection, schedule: Q04DX003 (ip), vehicle: Klucel (hydroxypropylcellulose) (HPC) 104 % of control | dose: 200.0 mg/kg/injection, schedule: Q04DX003 (ip), vehicle: Klucel (hydroxypropylcellulose) (HPC) 100 % of control

CC(=O)OCC1OC(Nc2[nH]c(=O)nc3occc23)C(OC(C)=O)C(OC(C)=O)C1OC(C)=O (configuration not stated)
inactive: dose: 100.0 mg/kg/injection, schedule: Q01DX001 (ip), vehicle: saline with Tween-80 107 % of control | dose: 200.0 mg/kg/injection, schedule: Q01DX001 (ip), vehicle: saline with Tween-80 99 % of control | dose: 400.0 mg/kg/injection, schedule: Q01DX001 (ip), vehicle: saline with Tween-80 97 % of control

CC12CCCN(CCCl)C1CCC1C2CCC2(C)C1CCCN2CCCl (configuration not stated)
inactive: dose: 0.78 mg/kg/injection, schedule: Q01DX001 (ip), vehicle: saline with Tween-80 108 % of control | dose: 1.56 mg/kg/injection, schedule: Q01DX001 (ip), vehicle: saline with Tween-80 112 % of control and 118 % of control | dose: 1.56 mg/kg/injection, schedule: Q01DX001 (ip), vehicle: saline 102 % of control | dose: 3.13 mg/kg/injection, schedule: Q01DX001 (ip), vehicle: saline with Tween-80 117 % of control

CC1(C)OCC2OC=CC(=O)C2O1 (configuration not stated)
inactive: [9] 108 % of control | [10] 101 % of control | dose: 100.0 mg/kg/injection, schedule: Q04DX003 (ip), vehicle: saline 108 % of control | dose: 200.0 mg/kg/injection, schedule: Q04DX003 (ip), vehicle: saline with Tween-80 111 % of control | dose: 200.0 mg/kg/injection, schedule: Q04DX003 (ip), vehicle: saline 104 % of control | dose: 400.0 mg/kg/injection, schedule: Q04DX003 (ip), vehicle: saline with Tween-80 120 % of control | dose: 400.0 mg/kg/injection, schedule: Q04DX003 (ip), vehicle: saline 124 % of control

COC1c2ccccc2C=CN1C#N (configuration not stated)
inactive: dose: 50.0 mg/kg/injection, schedule: Q01DX005 (ip), vehicle: distilled water + Tween-80 + alcohol 105 % of control | dose: 100.0 mg/kg/injection, schedule: Q01DX005 (ip), vehicle: distilled water + Tween-80 + alcohol 107 % of control

O=C(O)CC1OCC=C2C[N+]3([O-])CCC45c6ccccc6NC4C1C2CC53 (configuration not stated)
inactive: dose: 15.0 mg/kg/injection, schedule: Q01DX005 (ip), vehicle: saline with Tween-80 105 % of control | dose: 30.0 mg/kg/injection, schedule: Q01DX005 (ip), vehicle: saline with Tween-80 105 % of control | [11] 99 % of control and 101 % of control

CC(=O)OCC1OC([Se][As](C)C)C(OC(C)=O)C(OC(C)=O)C1OC(C)=O (configuration not stated)
inactive: dose: 1.56 mg/kg/injection, schedule: Q01DX009 (ip), vehicle: saline with Tween-80 95 % of control | [16] 95 % of control | [17] 99 % of control | dose: 11.0 mg/kg/injection, schedule: Q01DX009 (ip), vehicle: saline with Tween-80 104 % of control | [18] 99 % of control | dose: 16.6 mg/kg/injection, schedule: Q01DX009 (ip), vehicle: saline with Tween-80 110 % of control | dose: 37.5 mg/kg/injection, schedule: Q01DX009 (ip), vehicle: saline with Tween-80 119 % of control

CCOC(=O)C(Cc1ccc(N(CCCl)CCCl)cc1)NC(=O)CNC(C)=O (configuration not stated)
active: [18] 177 % of control | dose: 12.5 mg/kg/injection, schedule: Q04DX003 (ip), vehicle: saline 165 % of control | dose: 25.0 mg/kg/injection, schedule: Q01DX009 (ip), vehicle: saline with Tween-80 268 % of control
inactive: dose: 0.5 mg/kg/injection, schedule: Q04DX003 (ip), vehicle: saline with Tween-80 113 % of control | dose: 1.0 mg/kg/injection, schedule: Q04DX003 (ip), vehicle: saline with Tween-80 104 % of control | dose: 33.0 mg/kg/injection, schedule: Q04DX003 (ip), vehicle: saline with Tween-80 113 % of control | [9] 90 % of control

O=S1(=O)C2C=CC1CCCC2
inactive: dose: 12.5 mg/kg/injection, schedule: Q01DX009 (ip), vehicle: saline 95 % of control | dose: 25.0 mg/kg/injection, schedule: Q01DX009 (ip), vehicle: saline 90 % of control | dose: 50.0 mg/kg/injection, schedule: Q01DX009 (ip), vehicle: saline 92 % of control and 96 % of control

COC(=O)COc1cc2c(cc1C(C)c1ccc(O)cc1)OCO2 (configuration not stated)
inactive: [6] 100 % of control | [7] 102 % of control | [8] 90 % of control

CCc1nc(N)nc(N)c1-c1ccc(OC)c(N=[N+]=[N-])c1
inactive: [11] 97 % of control | [12] 100 % of control | [13] 117 % of control

CC1=C(Sc2ccc(Br)cc2)C(N)Nc2nc(N)nc(N)c21 (configuration not stated)
inactive: [11] 89 % of control | [12] 89 % of control
